Where two headings read alike, the source gives them in different places.
Columns and labels:
[1] = biological target: C. elegans (N2) complex I (NADH:ubiquinone oxidoreductase) (Caenorhabditis elegans, UniProt P24887+Q93873+Q94360); test: biochemical; format: biochemical
Summary of the method: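 Mitochondria, 0.2 mg/mL protein, freeze-thawed three times, assayed in 25 mM KPi pH 7.5 with BSA, 80 μM NADH, 60 μM decylubiquinone, 160 μM DCIP, antimycin A and KCN. Rate from initial linear slope of A600 over 15 min. % of solvent control.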

Sequence of C. elegans (N2) complex I (NADH:ubiquinone oxidoreductase) (Q94360 17-199): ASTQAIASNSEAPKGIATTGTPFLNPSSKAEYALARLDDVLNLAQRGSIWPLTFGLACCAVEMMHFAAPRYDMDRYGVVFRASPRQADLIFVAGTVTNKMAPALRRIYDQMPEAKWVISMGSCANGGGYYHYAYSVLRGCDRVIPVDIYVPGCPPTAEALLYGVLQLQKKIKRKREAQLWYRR
Sequence of C. elegans (N2) complex I (NADH:ubiquinone oxidoreductase) (P24887 whole entry): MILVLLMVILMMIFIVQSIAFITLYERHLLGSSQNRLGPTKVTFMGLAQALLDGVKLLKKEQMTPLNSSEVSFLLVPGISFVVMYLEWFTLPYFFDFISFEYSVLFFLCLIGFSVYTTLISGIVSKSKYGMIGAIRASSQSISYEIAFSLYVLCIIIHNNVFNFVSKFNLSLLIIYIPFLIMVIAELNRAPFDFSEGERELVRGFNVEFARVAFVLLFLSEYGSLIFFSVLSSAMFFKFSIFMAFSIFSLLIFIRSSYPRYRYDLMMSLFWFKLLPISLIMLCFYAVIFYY
Sequence of C. elegans (N2) complex I (NADH:ubiquinone oxidoreductase) (Q93873 31-482): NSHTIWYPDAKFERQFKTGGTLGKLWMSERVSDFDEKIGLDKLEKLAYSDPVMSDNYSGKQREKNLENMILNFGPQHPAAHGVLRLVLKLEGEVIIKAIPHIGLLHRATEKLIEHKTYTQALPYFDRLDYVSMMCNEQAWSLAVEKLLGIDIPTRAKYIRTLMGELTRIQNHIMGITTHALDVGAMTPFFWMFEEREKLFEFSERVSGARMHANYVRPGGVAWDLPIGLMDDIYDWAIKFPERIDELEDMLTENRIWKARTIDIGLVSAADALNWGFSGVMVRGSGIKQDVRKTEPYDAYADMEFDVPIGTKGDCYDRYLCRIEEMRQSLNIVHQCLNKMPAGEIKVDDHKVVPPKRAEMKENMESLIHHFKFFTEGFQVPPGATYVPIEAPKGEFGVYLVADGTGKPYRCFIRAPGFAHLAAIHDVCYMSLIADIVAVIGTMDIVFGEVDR

CCCn1c(COc2ccc(C)cc2)nc2ccccc21 [Compound 6944471]
activity at 0.0001 µM ([1]; Dose 0.0001 µM, read-out: C. elegans mitochondrial complex I activity): 95.2% | activity at 0.0005 µM ([1]; Dose 0.0005 µM, read-out: C. elegans mitochondrial complex I activity): 103% | activity at 0.001 µM ([1]; Dose 0.001 µM, read-out: C. elegans mitochondrial complex I activity): 96.6% | activity at 0.0025 µM ([1]; Dose 0.0025 µM, read-out: C. elegans mitochondrial complex I activity): 100% | activity at 0.005 µM ([1]; Dose 0.005 µM, read-out: C. elegans mitochondrial complex I activity): 90.8% | activity at 0.013 µM ([1]; Dose 0.013 µM, read-out: C. elegans mitochondrial complex I activity): 108% | activity at 0.025 µM ([1]; Dose 0.025 µM, read-out: C. elegans mitochondrial complex I activity): 106% | activity at 0.063 µM ([1]; Dose 0.063 µM, read-out: C. elegans mitochondrial complex I activity): 111% | activity at 0.125 µM ([1]; Dose 0.125 µM, read-out: C. elegans mitochondrial complex I activity): 123% | activity at 0.313 µM ([1]; Dose 0.313 µM, read-out: C. elegans mitochondrial complex I activity): 103% | activity at 0.625 µM ([1]; Dose 0.625 µM, read-out: C. elegans mitochondrial complex I activity): 113% | activity at 1.5 µM ([1]; Dose 1.5 µM, read-out: C. elegans mitochondrial complex I activity): 107% | activity at 3 µM ([1]; Dose 3 µM, read-out: C. elegans mitochondrial complex I activity): 96.1% | activity at […] ([1]; Dose 7.5 µM, read-out: C. elegans mitochondrial complex I activity): 108% | activity at 15 µM ([1]; Dose 15 µM, read-out: C. elegans mitochondrial complex I activity): 88.5% | activity at 37.5 µM ([1]; Dose 37.5 µM, read-out: C. elegans mitochondrial complex I activity): 89.5% | activity at 75 µM ([1]; Dose 75 µM, read-out: C. elegans mitochondrial complex I activity): 64.7% | IC50 ([1]; wild-type C. elegans mitochondria, estimated from fitted dose-response curves, read-out: C. elegans Complex I IC50): > 75 µM | Screen "Hit" (L1 wild-type C. elegans; 50 μM, […], hit = relative motility below 0.25 3 hours after removal of KCN): Y (hits were identified as compounds that reduced relative motility below 0.25 (75% reduction)) | Relative Motility (L1 wild-type C. elegans; 50 μM, […], worm motility 3 hours after removal of KCN, relative to DMSO controls, single biological replicate): 0.170 | C. elegans KCN Survival (L1 wild-type C. elegans; Dose 0.2 µM, mean of at least three biological replicates): 0.888 | C. elegans KCN Survival (L1 wild-type C. elegans; Dose 0.39 µM): 0.949 | C. elegans KCN Survival (L1 wild-type C. elegans; Dose 1.56 µM): 1.451 | C. elegans KCN Survival (L1 wild-type C. elegans; Dose 3.13 µM): 0.820 | C. elegans KCN Survival (L1 wild-type C. elegans; Dose 6.25 µM): 0.671 | C. elegans KCN Survival (L1 wild-type C. elegans; Dose 12.5 µM): 0.270 | C. elegans KCN Survival (L1 wild-type C. elegans; Dose 25 µM): 0.341 | C. elegans KCN Survival (L1 wild-type C. elegans; Dose 50 µM): 0.000 | C. elegans KCN Survival (L1 wild-type C. elegans; Dose 100 µM): 0.000

Source: article PMC11079024, “Identification of a family of species-selective complex I inhibitors as potential anthelmintics” (Nature Communications, 2024)
